From patent US4959368A, “Therapeutic agent for neurological diseases” (Mitsui Petrochemical Industries Ltd., priority 1986, dated 1990)
Where two headings read alike, the source gives them in different places.

What was measured:
[1] = Acute toxicity, mouse; assay type: in vivo; conditions: in vivo, po, read-out: Presumed LD50
Method: (§1) The acute toxicity of the compounds of the invention was examined by the following method.
(§2) Male ddy-strain 5-week old mice and male Wistar-strain 8 week old rats, five per group, were used as experimental animals. Each of the compounds was dissolved in saline and administered perorally, and the toxicity of the compound was assessed 24 hours after the administration.

[2] = tested on: mice; experiment: Acute toxicity, mouse; assay type: in vivo; conditions: 24 hours
Method: as §1, §2

[3] = tested on: mouse neuroblastoma cell line neuro-2a; experiment: Activity on neuro-2a, cells with outgrown neurites; assay type: cell-based
Procedure, shortened: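 Mouse neuro-2a cells in DMEM with FCS exposed to compounds for 24 h (up to 6 concentrations, triplicate runs), glutaraldehyde-fixed and methylene blue-stained. Proportion of cells bearing a neurite at least twice the cell's long diameter counted microscopically over ≥200 cells.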

[4] = tested on: human neuroblastoma cell line GOTO; experiment: Activity on neuroblastoma cell line GOTO (cell number, number and length of neurites); assay type: cell-based; conditions: for Number of cells: control 3.17
Method: The biological activities in vitro of the compounds of formula (I) on cells of the nervous system were tested. The cells tested were human neuroblastoma cell line GOTO [see Sekiguchi, M., Oota, T., Sakakibara, K., Inui, N. & Fujii, G., Japan. J. Exp. Med., 49, 67-83 (1979)], and neuroblastoma cell line NB-1 [see Miyake, S., Shimo, Y., Kitamura, T., Nojyo, Y., Nakamura, T., Imkashuku, S. and Abe, T., The Autonomic Nervous System, 10, 115-120 (1973)], and mouse neuroblastoma cell line neuro-2a (Dainippon Pharmaceutical Co., Ltd.) which have been established as the cells of the nervous system. The above neuve cells were grown in an incubator at 37° C. in the presence of 5% carbon dioxide gas exponentially, and then cultivated for a certain period of time together with the compounds of formula (I).
The effect of the compounds of this invention on neuroblastoma cells was examined by the following method.
A culture medium [composed of 45% of RPMI 1640 medium, 45% modified Eagle's medium (MEM) and 10% of fetal calf serum (FCS) and containing penicillin G sodium (100 units/ml) and streptomycin sulfate (100 microgram/ml)] containing neurobalstoma cell line GOTO in the logarithmic growth period was poured in an amount of 2 ml each into polystyrene dishes (35 mm; made by Corning Co.) so that the cell concentration was 2 to 6×10^4 cells per dish, and the cells were cultured for 1 to 2 days in a carbon dioxide gas incubator containing 5% of carbon dioxide gas in air at 37° C. Then, the culture fluid was removed, and 2 ml of a fresh serum-free culture fluid (consisting of 50% of RPMI medium and 50% of MEM medium and containing penicillin G sodium and streptomycin sulfate in the same amounts as above) was added. At the same time, a presterilized PBS solution (phosphate buffered saline) of each of the test compounds in various concentrations was added to each of the dishes. After culturing for 24 hours, the number of living cells was counted. Furthermore, the culture was photographed, and from the photos, the number and length of neurites per cell were measured. The numer of living cells was counted for 3 to 6 dishes by resistance to staining with erythrosine dye. The number and length of the neurites were measured with regard to 6 photos (more than 200 cells per photo).

For `c1cnc(N2CCNCC2)nc1` [Compound 124], the LD50 at 24 h ([1]; Table 6, p.o.) was 550 to 1000 mg/kg, the “Number of dead animals/number of test animals” value ([2]; Table 6, 300 mg/kg p.o.) was 0/5 and the “Number of dead animals/number of test animals” value ([2]; Table 6, 500 mg/kg p.o.) was 0/5. The “Number of dead animals/number of test animals” value ([2]; Table 6, 1000 mg/kg p.o.) was 3/5, the “Cells having neurites with a length at least twice the long diameter of cell/total number of cells” value ([3]; Table 3 Run No. 1, 3.6 μM, control 2.2 ± 0.8) was 4.6 ± 0.5% and the “Cells having neurites with a length at least twice the long diameter of cell/total number of cells” value ([3]; Table 3 Run No. 1, 36 μM, control 2.2 ± 0.8) was 3.8 ± 1.2%. The Number of cells ([4]; Table 1 Run No. 3, 0.0 μg/ml (so in the source)) was 4.01 × 10^4 /dish, the “Number of neurites/cell (mean ± S.D.)” value ([4]; Table 1 Run No. 3, 1 μg/ml, control 1.94 ± 0.69, all *P <0.01) was 2.23 ± 0.82 neurites/cell and the Number of cells ([4]; Table 1 Run No. 3, 1 μg/ml) was 4.10 × 10^4 /dish. For the same molecule, the “Length of neurites (mean ± S.D.)” value ([4]; Table 1 Run No. 3, 1 μg/ml, control 45.13 ± 22.71, all *P <0.01) was 66.56 ± 22.16 μm/cell, the “Number of neurites/cell (mean ± S.D.)” value ([4]; Table 1 Run No. 4, 1 μg/ml, control 1.98 ± 0.74) was 2.13 ± 0.72 neurites/cell and the “Number of cells (mean ± S.E.)” value ([4]; Table 1 Run No. 4, 1 μg/ml, control 5.48 ± 1.38) was 7.22 ± 1.98 × 10^4 /dish. The “Length of neurites (mean ± S.D.)” value ([4]; Table 1 Run No. 4, 1 μg/ml, control 54.15 ± 33.64) was 72.19 ± 49.23 μm/cell, the “Number of neurites/cell (mean ± S.D.)” value ([4]; Table 1 Run No. 4, 10 μg/ml, control 1.98 ± 0.74) was 2.08 ± 0.69 neurites/cell and the “Number of cells (mean ± S.E.)” value ([4]; Table 1 Run No. 4, 10 μg/ml, control 5.48 ± 1.38) was 5.45 ± 2.61 × 10^4 /dish. For the same molecule, the “Length of neurites (mean ± S.D.)” value ([4]; Table 1 Run No. 4, 10 μg/ml, control 54.15 ± 33.64) was 71.31 ± 45.67 μm/cell, the “Number of neurites/cell (mean ± S.D.)” value ([4]; Table 1 Run No. 5, 1 μg/ml, control 1.96 ± 0.64) was 1.96 ± 0.54 neurites/cell and the “Number of cells (mean ± S.E.)” value ([4]; Table 1 Run No. 5, 1 μg/ml, control 5.30 ± 0.23) was 4.89 ± 0.59 × 10^4 /dish. For the same molecule, the “Length of neurites (mean ± S.D.)” value ([4]; Table 1 Run No. 5, 1 μg/ml, control 46.41 ± 33.28) was 52.59 ± 32.50 μm/cell.

In the case of `COCCN1C(=O)Cc2cnc(N3CCNCC3)nc21` [Compound 428], the LD50 at 24 h ([1]; Table 7, p.o.) was > 1000 mg/kg, the “Number of dead animals/number of test animals” value ([2]; Table 7, 1000 mg/kg p.o.) was 0/5 and the “Cells having neurites with a length at least twice the long diameter of cell/total number of cells” value ([3]; Table 3 Run No. 3, 0.03 mM, control 3.9 ± 0.3) was 6.7 ± 1.5%. For the same molecule, the “Cells having neurites with a length at least twice the long diameter of cell/total number of cells” value ([3]; Table 3 Run No. 3, 0.3 mM, control 3.9 ± 0.3) was 17.3 ± 0.8%, the “Cells having neurites with a length at least twice the long diameter of cell/total number of cells” value ([3]; Table 3 Run No. 3, 1 mM, control 3.9 ± 0.3) was 30.1 ± 2.4% and the “Cells having neurites with a length at least twice the long diameter of cell/total number of cells” value ([3]; Table 3 Run No. 4, 0.1 mM, control 3.1 ± 0.2) was 13.7 ± 2.1%. For the same molecule, the “Cells having neurites with a length at least twice the long diameter of cell/total number of cells” value ([3]; Table 3 Run No. 4, 0.5 mM, control 3.1 ± 0.2) was 27.2 ± 3.1%, the “Cells having neurites with a length at least twice the long diameter of cell/total number of cells” value ([3]; Table 3 Run No. 4, 1 mM, control 3.1 ± 0.2) was 29.1 ± 2.4% and the “Cells having neurites with a length at least twice the long diameter of cell/total number of cells” value ([3]; Table 3 second Run No. 5, 0.3 mM, control 4.5 ± 0.3) was 9.8 ± 2.3%. The “Cells having neurites with a length at least twice the long diameter of cell/total number of cells” value ([3]; Table 3 second Run No. 5, 0.5 mM, control 4.5 ± 0.3) was 14.1 ± 1.5% and the “Cells having neurites with a length at least twice the long diameter of cell/total number of cells” value ([3]; Table 3 second Run No. 5, 1 mM, control 4.5 ± 0.3) was 15.6 ± 1.0%.

For `O=C1Cc2cnc(N3CCNCC3)nc2N1` [Compound 424], the LD50 at 24 h ([1]; Table 7, p.o.) was > 1000 mg/kg, the “Number of dead animals/number of test animals” value ([2]; Table 7, 1000 mg/kg p.o.) was 0/5 and the “Cells having neurites with a length at least twice the long diameter of cell/total number of cells” value ([3]; Table 3 first Run No. 5, 0.5 mM, no control given) was 12.6 ± 1.1%. For the same molecule, the “Cells having neurites with a length at least twice the long diameter of cell/total number of cells” value ([3]; Table 3 first Run No. 5, 1 mM, no control given) was 27.1 ± 2.1%.

With `CCCCOc1ccnc(N2CCNCC2)n1` [Compound 128] the LD50 at 24 h ([1]; Table 6, p.o.) was 300 to 550 mg/kg, the “Number of dead animals/number of test animals” value ([2]; Table 6, 300 mg/kg p.o.) was 0/5 and the “Number of dead animals/number of test animals” value ([2]; Table 6, 500 mg/kg p.o.) was 3/5. For the same molecule, the “Number of dead animals/number of test animals” value ([2]; Table 6, 1000 mg/kg p.o.) was 4/5, the “Cells having neurites with a length at least twice the long diameter of cell/total number of cells” value ([3]; Table 3 Run No. 1, 0.028 μM, control 2.2 ± 0.8) was 4.4 ± 0.7% and the “Cells having neurites with a length at least twice the long diameter of cell/total number of cells” value ([3]; Table 3 Run No. 1, 0.29 μM, control 2.2 ± 0.8) was 3.4 ± 0.6%. For the same molecule, the “Cells having neurites with a length at least twice the long diameter of cell/total number of cells” value ([3]; Table 3 Run No. 1, 28 μM, control 2.2 ± 0.8) was 5.2 ± 0.9%.
